Data on two compounds can be found in patent US6858650B1, “Stable salts of novel derivatives of 3,3-diphenylpropylamines” (Schwarz Pharma AG, priority 1999, dated 2005).

The structures appear in SMILES notation.

Series [1] is described as follows: Stability of the solid salt / on storage. It is filed as physicochemical.
Series [2] can be described thus: Hygroscopicity of the solid salt. Type of series: physicochemical.

Consider `CC(C)C(=O)Oc1ccc(CO)cc1C(CCN(C(C)C)C(C)C)c1ccccc1.O=C(O)/C=C/C(=O)O` (stereo not drawn) [2a, R-(+)-2-(3-diisopropylamino-1-phenylpropyl)-4-hydroxymethylphenyl-isobutyrate ester hydrogen fumarate], for which the stability entry in series [1] (crystalline hydrogen fumarate salt, at RT) is given as “stable at RT”. Further, the hygroscopicity result in series [2] (crystalline hydrogen fumarate salt) is “non-hygroscopic”.
As to `CC(C)C(=O)Oc1ccc(CO)cc1C(CCN(C(C)C)C(C)C)c1ccccc1.Cl` (stereo not drawn) [2b, R-(+)-2-(3-diisopropylamino-1-phenylpropyl)-4-hydroxymethylphenyl-isobutyrate ester hydrochloride hydrate], the stability result in series [1] (hydrate-containing product from humid solvent with at least one mole equivalent of water) is “stable”. Besides, the hygroscopicity result in series [2] (anhydrous product crystallised from isobutyrate chloride solution) is listed as “very hygroscopic”.
